20 compounds from patent US20140249135A1, “PIM KINASE INHIBITORS AND METHODS OF THEIR USE” (NOVARTIS AG, priority 2007, published 2014) can be followed below.

The target of one assay is Pim3 kinase (Homo sapiens, UniProt Q86V86). The experiment in a line: Pim3 ATP depletion assay. Type of assay: biochemical. The conditions noted are these: read-out: IC50 (μM) PIM3.
The next assay has as its target Pim1 kinase (Homo sapiens, UniProt P11309). The experiment in a line: Pim1 ATP depletion assay.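 Also: Luciferase-luciferin luminescence readout of residual ATP after PIM1 transfers phosphate to a peptide substrate, 40 µM ATP added, reaction run to roughly half ATP consumption.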 Type of assay: biochemical. The following applies: Pim1 ATP depletion assay; read-out: IC50 (μM) PIM1.
Another assay deals with HEL 92.1.7 cells. In words: Cell proliferation assay (CellTiter-Glo), HEL 92.1.7. Type of assay: cell-based. The conditions noted are these: Homo sapiens, read-out: EC50 (μM) HEL 92.1.7. The protocol: HEL 92.1.7 cells (ATTC No. TIB-180, an erythroleukemia line derived from malignant peripheral blood), MV4-11 cells (ATCC No. CRL-9591, a human acute monocytic leukemia line) and PC3 cells (ATCC No. CRL-1435, a human prostatic adenocarcinoma line) were cultured in RPMI1640 supplemented with 10% FBS, sodium pyruvate and antibiotics. Cells were plated in the same medium at a density of 1000 cells per well into 96 well tissue culture plates, with outside wells vacant, on the day of assay.
Test compounds supplied in DMSO were diluted into DMSO at 500 times the desired final concentrations before dilution into culture media to 2 times final concentrations. Equal volumes of 2× compounds were added to the cells in 96 well plates and incubated at 37° C. for 3 days.
After 3 days plates were equilibrated to room temperature and equal volume of CellTiter-Glow Reagent (Promega) was added to the culture wells. The plates were agitated briefly and luminescent signal was measured with luminometer. The percent inhibition of the signal seen in cells treated with DMSO alone vs. cells treated with control compound was calculated and used to determine EC50 values (i.e., the concentration of a test compound that is required to obtain 50% of the maximum effect in the cells) for tested compounds, as shown in Example 763.

In the next assay the target is Pim2 kinase (Homo sapiens, UniProt Q9P1W9). In words: Pim2 ATP depletion assay.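 Also: Luciferase-based luminescent readout of ATP remaining after PIM2 phosphorylates a BAD peptide, final 5 nM enzyme, 4 µM ATP, 10 µM peptide, 2.5% DMSO, run to roughly half ATP consumption.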 Type of assay: biochemical. The conditions noted are these: read-out: IC50 (μM) PIM2.
Pim2 kinase, sequence (Q9P1W9 whole entry): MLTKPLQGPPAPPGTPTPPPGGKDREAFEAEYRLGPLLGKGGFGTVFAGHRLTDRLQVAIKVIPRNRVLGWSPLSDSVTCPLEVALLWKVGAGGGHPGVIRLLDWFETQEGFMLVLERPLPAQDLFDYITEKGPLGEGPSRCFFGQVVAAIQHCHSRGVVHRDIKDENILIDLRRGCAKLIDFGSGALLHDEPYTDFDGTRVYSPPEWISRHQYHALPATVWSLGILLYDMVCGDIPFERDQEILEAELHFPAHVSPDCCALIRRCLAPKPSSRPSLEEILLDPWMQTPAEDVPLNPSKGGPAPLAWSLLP

Pim1 kinase, sequence (P11309 whole entry): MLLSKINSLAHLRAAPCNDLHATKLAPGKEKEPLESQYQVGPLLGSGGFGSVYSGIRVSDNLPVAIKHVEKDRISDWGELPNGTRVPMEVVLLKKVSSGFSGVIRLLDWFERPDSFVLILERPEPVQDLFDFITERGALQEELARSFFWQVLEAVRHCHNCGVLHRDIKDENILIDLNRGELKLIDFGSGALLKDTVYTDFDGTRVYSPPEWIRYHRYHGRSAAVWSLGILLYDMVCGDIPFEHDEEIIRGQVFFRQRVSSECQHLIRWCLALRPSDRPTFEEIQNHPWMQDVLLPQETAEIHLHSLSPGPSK

With `Nc1ncc(Br)nc1C(=O)Nc1cnccc1N1CCCC(N)C1` (centres unmarked) [Example 181, 3-amino-N-[4-(3-aminopiperidin-1-yl)pyridin-3-yl]-6-bromopyrazine-2-carboxamide], the IC50 at Pim3 kinase, at Pim1 kinase and on Pim2 kinase was below 1 µM each time. Moreover, the concentration giving a half-maximal response (EC50) in the assay on HEL 92.1.7 cells was below 1 µM.

Take `CS(=O)(=O)c1ccc(-c2ccc(N)c(C(=O)Nc3cnccc3N3CCC[C@H](N)C3)n2)cc1` [Example 319, 3-amino-6-(4-methane-sulfonyl-phenyl)-pyridine-2-carboxylic acid ((S)-3-amino-3,4,5,6-tetrahydro-2H-[1,4′]bi-pyridinyl-3′-yl)-amide]: the IC50 on Pim3 kinase, on Pim1 kinase and at Pim2 kinase was below 1 µM throughout. Also, in the assay with HEL 92.1.7 cells, the EC50 lay within 1 to 5 µM.

Consider `Cc1ccc(S(=O)(=O)N2CCCC2)cc1-c1ccc(N)c(C(=O)Nc2cnccc2N2CCC[C@H](N)C2)n1` [Example 321, 3-amino-6-[2-methyl-5-(pyrrolidine-1-sulfonyl)-phenyl]-pyridine-2-carboxylic acid ((S)-3-amino-3,4,5,6-tetrahydro-2H-[1,4′]bi-pyridinyl-3′-yl)-amide], for which the IC50 on Pim3 kinase, on Pim1 kinase and on Pim2 kinase was below 1 µM throughout. For the same compound, the EC50 in the assay with HEL 92.1.7 cells was in the range of 1 to 5 µM.

For `Nc1ccc(-c2cc(C(=O)NC3CCCCC3)ccc2F)nc1C(=O)Nc1cnccc1N1CCC[C@H](N)C1` [Example 324, 3-amino-6-(5-cyclohexyl-carbamoyl-2-fluoro-phenyl)-pyridine-2-carboxylic acid ((S)-3-amino-3,4,5,6-tetra-hydro-2H-[1,4′]bipyridinyl-3′-yl)-amide], the IC50 on Pim3 kinase, on Pim1 kinase and on Pim2 kinase was below 1 µM throughout. For the same compound, the concentration for a half-maximal effect (EC50) in the assay on HEL 92.1.7 cells is below 1 µM.

Take `COC(=O)c1ccc(-c2ccc(N)c(C(=O)Nc3cnccc3N3CCC[C@H](N)C3)n2)c(F)c1` [Example 325, 4-[5-amino-6-((S)-3-amino-3,4,5,6-tetrahydro-2H-[1,4′]bi-pyridinyl-3′-ylcarbamoyl)-pyridin-2-yl]-3-fluoro-benzoic acid methyl ester]: the IC50 on Pim3 kinase, at Pim1 kinase and on Pim2 kinase was below 1 µM throughout. Besides, the EC50 in the assay with HEL 92.1.7 cells was 1 to 5 µM.

For `CCCNC(=O)c1ccc(F)c(-c2ccc(N)c(C(=O)Nc3cnccc3N3CCC[C@H](N)C3)n2)c1` [Example 326, 3-amino-6-(2-fluoro-5-propyl-carbamoyl-phenyl)-pyridine-2-carboxylic acid ((S)-3-amino-3,4,5,6-tetrahydro-2H-[1,4′]bipyridinyl-3′-yl)-amide], the IC50 on Pim3 kinase, at Pim1 kinase and on Pim2 kinase was below 1 µM throughout. The EC50 with HEL 92.1.7 cells fell in the range of 1 to 5 µM.

Regarding `CCNC(=O)c1ccc(F)c(-c2ccc(N)c(C(=O)Nc3cnccc3N3CCC[C@H](N)C3)n2)c1` [Example 327, 3-amino-6-(5-ethylcarbamoyl-2-fluoro-phenyl)-pyridine-2-carboxylic acid ((S)-3-amino-3,4,5,6-tetrahydro-2H-[1,4′]bi-pyridinyl-3′-yl)-amide], the IC50 at Pim3 kinase, on Pim1 kinase and at Pim2 kinase was below 1 µM throughout. Also, the EC50 in the assay on HEL 92.1.7 cells lay in the range of 1 to 5 µM.

With `CCN(CC)S(=O)(=O)c1ccc(C)c(-c2ccc(N)c(C(=O)Nc3cnccc3N3CCC[C@H](N)C3)n2)c1` [Example 329, 3-amino-6-(5-diethyl-sulfamoyl-2-methyl-phenyl)-pyridine-2-carboxylic acid ((S)-3-amino-3,4,5,6-tetra-hydro-2H-[1,4′]bipyridinyl-3′-yl)-amide], the IC50 on Pim3 kinase, at Pim1 kinase and on Pim2 kinase was below 1 µM throughout. Further, the EC50 in the assay on HEL 92.1.7 cells is 5 to 10 µM.

`Cc1ccc(S(=O)(=O)N(C)C)cc1-c1ccc(N)c(C(=O)Nc2cnccc2N2CCC[C@H](N)C2)n1` [Example 330, 3-amino-6-(5-dimethyl-sulfamoyl-2-methyl-phenyl)-pyridine-2-carboxylic acid ((S)-3-amino-3,4,5,6-tetra-hydro-2H-[1,4′]bipyridinyl-3′-yl)-amide]: the IC50 at Pim3 kinase, on Pim1 kinase and at Pim2 kinase was below 1 µM throughout. In addition, the EC50 with HEL 92.1.7 cells is above 10 µM.

Take `Nc1ccc(-c2cccnc2Cl)nc1C(=O)Nc1cnccc1N1CCC[C@H](N)C1` [Example 331, 5-amino-2′-chloro-[2,3′]bi-pyridinyl-6-carboxylic acid ((S)-3-amino-3,4,5,6-tetra-hydro-2H-[1,4′]bipyridinyl-3′-yl)-amide]: the concentration for half-maximal inhibition (IC50) on Pim3 kinase, on Pim1 kinase and on Pim2 kinase was below 1 µM each time. In addition, the EC50 with HEL 92.1.7 cells is 1 to 5 µM.

As for `CNC(=O)c1ccc(F)c(-c2ccc(N)c(C(=O)Nc3cnccc3N3CCC[C@H](N)C3)n2)c1` [Example 334, 3-amino-6-(2-fluoro-5-methylcarbamoyl-phenyl)-pyridine-2-carboxylic acid ((S)-3-amino-3,4,5,6-tetra-hydro-2H-[1,4′]bipyridinyl-3′-yl)-amide], the IC50 at Pim3 kinase, at Pim1 kinase and on Pim2 kinase was below 1 µM throughout. Further, the EC50 in the assay on HEL 92.1.7 cells was 5 to 10 µM.

With `Cc1ccc(S(=O)(=O)NC(C)(C)C)cc1-c1ccc(N)c(C(=O)Nc2cnccc2N2CCC[C@H](N)C2)n1` [Example 335, 3-amino-6-(5-tert-butyl-sulfamoyl-2-methyl-phenyl)-pyridine-2-carboxylic acid ((S)-3-amino-3,4,5,6-tetra-hydro-2H-[1,4′]bipyridinyl-3′-yl)-amide], the half-maximal inhibitory concentration (IC50) at Pim3 kinase, on Pim1 kinase and on Pim2 kinase was below 1 µM throughout. The EC50 in the assay on HEL 92.1.7 cells is 5 to 10 µM.

`COc1ccccc1-c1ccc(N)c(C(=O)Nc2cnccc2N2CCC[C@H](N)C2)n1` [Example 337]: the IC50 at Pim3 kinase, at Pim1 kinase and at Pim2 kinase was below 1 µM each time. In addition, the EC50 in the assay on HEL 92.1.7 cells lay within 5 to 10 µM.

Turning to `Nc1ccc(-c2ccncc2F)nc1C(=O)Nc1cnccc1N1CCC[C@H](N)C1` [Example 339, 5-amino-3′-fluoro-[2,4′]bi-pyridinyl-6-carboxylic acid ((S)-3-amino-3,4,5,6-tetra-hydro-2H-[1,4′]bipyridinyl-3′-yl)-amide], the IC50 at Pim3 kinase, on Pim1 kinase and on Pim2 kinase was below 1 µM each time. In addition, the concentration for a half-maximal effect (EC50) in the assay with HEL 92.1.7 cells is 1 to 5 µM.

In the case of `Nc1ncc(-c2ccc(O)cc2)nc1C(=O)Nc1cnccc1N1CCCC(N)C1` (centres unmarked) [Example 358, 3-amino-6-(4-hydroxy-phenyl)-pyrazine-2-carboxylic acid (3-amino-3,4,5,6-tetra-hydro-2H-[1,4′]bipyridinyl-3′-yl)-amide], the IC50 on Pim3 kinase, on Pim1 kinase and on Pim2 kinase was below 1 µM throughout. In addition, the EC50 in the assay with HEL 92.1.7 cells was below 1 µM.

For `Nc1cc(-c2ccc(N)c(C(=O)Nc3cnccc3N3CCC[C@H](N)C3)n2)ccn1` [Example 412, 5,2′-diamino-[2,4′]bipyridinyl-6-carboxylic acid ((S)-3-amino-3,4,5,6-tetrahydro-2H-[1,4′]bi-pyridinyl-3′-yl)-amide], the concentration for half-maximal inhibition (IC50) on Pim3 kinase, on Pim1 kinase and at Pim2 kinase was below 1 µM throughout. For the same compound, in the assay with HEL 92.1.7 cells, the EC50 lay in the range of 5 to 10 µM.

For the compound `COc1cccc(-c2ccc(N)c(C(=O)Nc3cnccc3N3CCC[C@H](N)C3)n2)n1` [Example 413, 5-amino-6′-methoxy-[2,2′]bi-pyridinyl-6-carboxylic acid ((S)-3-amino-3,4,5,6-tetrahydro-2H-[1,4′]bipyridinyl-3′-yl)-amide], the IC50 on Pim3 kinase, at Pim1 kinase and at Pim2 kinase was below 1 µM each time. Moreover, in the assay on HEL 92.1.7 cells, the EC50 is below 1 µM.

As to `Nc1ccc(-c2cccnc2)nc1C(=O)Nc1cnccc1N1CCC[C@H](N)C1` [Example 414, 5-amino-[2,3′]bipyridinyl-6-carboxylic acid ((S)-3-amino-3,4,5,6-tetrahydro-2H-[1,4′]bi-pyridinyl-3′-yl)-amide], the IC50 on Pim3 kinase, on Pim1 kinase and on Pim2 kinase was below 1 µM each time. The EC50 in the assay on HEL 92.1.7 cells lay within 1 to 5 µM.

On to `Nc1ccc(-c2ccncc2)nc1C(=O)Nc1cnccc1N1CCC[C@H](N)C1` [Example 415, 5-amino-[2,4′]bipyridinyl-6-carboxylic acid ((S)-3-amino-3,4,5,6-tetrahydro-2H-[1,4′]bi-pyridinyl-3′-yl)-amide], for which the IC50 on Pim3 kinase, at Pim1 kinase and at Pim2 kinase was below 1 µM throughout. In the assay with HEL 92.1.7 cells, the EC50 was below 1 µM.

Regarding `Cc1ccc(-c2ccc(N)c(C(=O)Nc3cnccc3N3CCC[C@H](N)C3)n2)c(F)c1` [Example 432, 3-amino-6-(2-fluoro-4-methyl-phenyl)-pyridine-2-carboxylic acid ((S)-3-amino-3,4,5,6-tetra-hydro-2H-[1,4′]bipyridinyl-3′-yl)-amide], the EC50 in the assay with HEL 92.1.7 cells is 1 to 5 µM.
